Results reported in PubChem BioAssay AID743267 (Broad Institute, 2014).
“And” between values parts separate entries of the source, which are not always exact repeats. Equal entries are not always repeated.

System: human bronchial epithelial cells, CFTR corrector, plate reader
Assay: CFTR ΔF508 corrector activity in bronchial cells, dose response, human bronchial epithelial cells, plate reader, cherry-pick, two tests (AID 743267)
[1] = measured here: test 2 replicate run

SMILES | AC50 (measured here: test 1 replicate run) [µM] | AC50 [1]
COc1ccc(-c2ccc3c(c2)[C@H]2[C@H](CCN2S(=O)(=O)c2ccc(OC)cc2)[C@@H](CO)N3C)cc1 | 9.59 | 
COc1ccc(C2=NOC(C(=O)NCc3ccc(F)cc3)C2)cc1OC (configuration not stated) |  | 1.06 µM
COc1ccccc1/C=N/NC(=O)c1cc2c(OC)c(OC)ccc2[nH]1 |  | 0.802 µM
COc1cc(Nc2c3c(nc4ccccc24)CCC3)cc(OC)c1OC |  | 1.97 µM
C/C(=N\NC(=O)c1cc(-c2cccs2)nc2ccccc12)c1ccccn1 |  | 2.45 µM
N#CC1=C(N)Oc2c(ccc3cccnc23)C1c1ccccc1 (configuration not stated) |  | 2.97 µM
COc1cccc(C2c3cc4c(cc3OC(NNC(N)=O)C2C)OCO4)c1O (configuration not stated) |  | 3.18 µM
CC(=O)Nc1ccc(Nc2c3ccccc3nc3ccccc23)cc1 |  | 4.6 µM
CCN(C(=O)CSc1nnc(C)n1-c1ccc(C)cc1)c1c(N)n(Cc2ccccc2)c(=O)[nH]c1=O |  | > 50 µM
CC(=O)O[C@H]1C(=O)[C@]2(C)[C@H]([C@H](OC(=O)c3ccccc3)[C@]3(O)C[C@H](OC(=O)[C@H](O)[C@@H](NC(=O)c4ccccc4)c4ccccc4)C(C)=C1C3(C)C)[C@]1(OC(C)=O)CO[C@@H]1C[C@@H]2O |  | 0.339 µM
O=C(/C=C/c1ccco1)NC(=S)Nc1nc(-c2ccc3ccccc3c2)cs1 |  | 3.34 µM
CC(=O)NC(c1ccc(Cl)cc1Cl)c1ccc2cccnc2c1O (configuration not stated) |  | 2.63 µM
CCOC1=C2[C@@H](CN(S(=O)(=O)c3ccc(C)cc3)[C@H]2c2ccc(Cl)cc2)[C@H]2C(=O)N(c3ccccc3)C(=O)[C@H]2C1 |  | > 50 µM
COc1cc(/C=N/NC(=O)c2cc(-c3c(C)nn(-c4ccccc4)c3C)n[nH]2)ccc1O |  | 7.78 µM
CCOc1ccc(C(=O)N[C@H](C(=O)Nc2cccc(S(=O)(=O)N3CCCCC3)c2)C(C)C)cc1 |  | 46.3 µM
COc1cc(OC)c2c(-c3cccc(-c4ccc(OC)c(OC)c4)c3)cc(=O)oc2c1 |  | 0.594 µM
COc1cc(OC)cc(C(=O)N[C@H](C(=O)Nc2nc3ccccc3[nH]2)C(C)C)c1 |  | 2.34 µM
COc1ccc2sc3cccc(NCCN(C)C)c3c(=O)c2c1 |  | 8.47 µM
CCOc1ccc(NC(=O)c2cc(OC)nc3ccccc23)cc1 |  | 1.7 µM
CN(C)CCCNc1c2ccccc2nc2ccccc12 |  | 0.879 µM
C[n+]1c2cc(N)ccc2cc2ccc(N)cc21 |  | 3.52 µM and 2.96 µM

SMILES | AC50 (measured here: test 1 replicate run) [µM] | AC50 [1]
O=C(NCCC1CCCCN1S(=O)(=O)c1cccs1)C(=O)Nc1ccc(F)cc1F (configuration not stated) |  | 8.39 µM
COc1ccc(-c2ccnc(-c3ccc(O)cc3)n2)cc1 |  | 1.43 µM
Cc1ccccc1-c1nc(CS(=O)(=O)CC(=O)NCc2ccccc2)c(C)o1 |  | > 50 µM
N=c1sccn1CC(=O)Nc1ccc(S(N)(=O)=O)cc1 |  | 14.9 µM
Clc1ccc(CSc2nncn2-c2ccc3c(c2)OCCO3)cc1 |  | 9.62 µM
N#CC1=C(N)Oc2cc(N)ccc2C1c1cccc(F)c1 (configuration not stated) |  | 3.15 µM
Cc1ccc(OCCNC(=O)c2cccc(S(=O)(=O)NCc3ccccc3)c2)cc1 |  | 1.64 µM
O=C1/C(=C\c2cc(Cl)c(O)c(Cl)c2)SC(=S)N1Cc1ccccc1 |  | 3.15 µM
CC1(C)OC(c2ccccc2)=C/C(=C/C=C2C(=O)NC(=S)NC2=O)O1 |  | 16.9 µM
CCN(CC)CCn1c2ccccc2c2nc3ccccc3nc21 |  | 11.3 µM
COc1ccc(S(=O)(=O)Nc2cc3c(cc2C(C)=O)OCO3)cc1 |  | 13.9 µM
COc1cc(C(=O)Nc2ccccc2C(=O)Nc2ccccn2)cc(OC)c1OC |  | 4.59 µM
COc1nc(N)nc(NC(=O)c2cccs2)c1N=O |  | 16 µM
O=C(N/N=C/c1c(O)ccc2ccccc12)c1ccc(Br)o1 |  | 6.34 µM
CN1/C(=C\C=C2/SC(=S)N(CC(=O)O)C2=O)C(C)(C)c2ccccc21 |  | 16 µM
COc1cc(C2CC(=O)N(c3ccc(C)cc3)C(=O)C2)cc(OC)c1OC |  | 2.37 µM
O=C(O)c1ccccc1-c1c2cc(I)c(=O)c(I)c-2oc2c(I)c(O)c(I)cc12 |  | 16.7 µM
NC1(C(=O)O)CC1 |  | > 50 µM
O=C(NCCOc1ccccc1)c1cc([N+](=O)[O-])ccc1N1CCOCC1 |  | 2.66 µM
COc1ccc([C@H]2C[C@H](O)[C@@H](n3cc(-c4ccc(F)cc4)nn3)CN2Cc2cccs2)cc1 |  | 16 µM
Nc1[nH]nc2ncc3cc4ccccc4nc3c12 |  | 17.7 µM
